Results published in US20070072831A1, “Integrase inhibitor compounds” (GILEAD SCIENCES, INC., priority 2005, published 2007).

What was measured:
[1] = tested on: HIV-IIIb; experiment: Antiviral assay in MT-4 cells infected with HIV-IIIb; assay type: cell-based; conditions: MT4, 120 h; MT-4 cells, HIV-IIIb, 5 days; read-out: EC50 Range MT-4
Summary of the method: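 MT-4 cells mixed with HIV-IIIb at m.o.i. 0.1 and added at once to 5-fold serial compound dilutions (7 concentrations, triplicate) in medium with 10% FBS. After 5 days at 37° C, cell viability read by CellTiter-Glo chemiluminescence.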

[2] = target: HIV integrase (Human immunodeficiency virus type 1 group M subtype B, UniProt P04585); experiment: biochemical

Question: Which EC50 [1] does the source give for `O=C1c2c(c(N3C(=O)CCC3=O)c3cccnc3c2O)CN1Cc1ccc(F)cc1` [Compound 226, 1-(7-(4-fluorobenzyl)-9-hydroxy-8-oxo-7,8-dihydro-6H-pyrrolo[3,4-g]quinolin-5-yl)pyrrolidine-2,5-dione] here?
Answer: Its EC50 is under 60 nM.

Question: And the IC50 [2]?
Answer: The IC50 was under 60 nM.
